The text below walks through data of patent publication US4199592A, “Antiinflammatory 4,5-diaryl-2-nitroimidazoles” (E. I. Du Pont de Nemours and Company, priority 1979, dated 1980).

Structures are written as SMILES. Like-named read-outs stand apart in the source and are kept apart here.

For experiment [1], the system named is adjuvant-induced arthritis in rats. Briefly: Established Adjuvant-Induced Arthritis in Rats (A.A.). In kind it is in vivo, Charles River Lewis male rats. To be noted: Rattus norvegicus, 24 h, read-out: A.A. ED50% (ED50% decrease from control paw volume).
Experiment [2] deals with stretching or writhing syndrome indicative of pain induced by phenylquinone. Briefly: Phenylquinone Writhing Test. In kind it is in vivo, female white mice. Conditions: Mus musculus, 0.5 h; oral, fasted mice; at 1/2 hour; read-out: ED50 (effective analgesic dose for 50% of the mice). The method, then:
Phenylquinone Writhing Test
A standard procedure for detecting and comparing the analgesic activity of compounds in this series for which there is good correlation with human efficacy is the standard phenylquinone writhing test modified from Siegmund, et al., Proc. Soc. Exp. Biol. Med. 95, 729 (1957). A test compound suspended in 1% methylcellulose was given orally to fasted (17-21 hours) female white mice, 5-20 animals per double blind test. Aqueous (0.01% phenyl-p-benzoquinone) phenylquinone was injected intraperitoneally at 24 minutes later using 0.20 ml per mouse. […] The effective analgesic dose for 50% of the mice (ED50) was calculated by the moving average method of Thompson, W. R., Bact. Rev. 11, 115-145 (1947); also time of peak action was determined for many of the compounds.

The mark [3] stands for this setting: oral, rats, 7 daily doses by gavage, paw volume of uninjected left hind paw one day after last dose.

As to `CC(=O)Oc1ccccc1C(=O)O` [Aspirin, aspirin], the 50% effective dose (ED50) in experiment [1] (po) was 305 mg/kg.
Same read-out and setting: the result for `COc1ccc2c(c1)c(CC(=O)O)c(C)n2C(=O)c1ccc(Cl)cc1` [Indomethacin, indomethacin] reads 0.3 mg/kg.
As for `CCCCC1C(=O)N(c2ccccc2)N(c2ccccc2)C1=O` [Phenylbutazone, phenylbutazone], the 50% effective dose (ED50) in experiment [1] (setting [3]) was determined as 10 mg/kg.
In the case of `O=[N+]([O-])c1nc(-c2ccc(F)cc2)c(-c2ccc(F)cc2)[nH]1` [Example 1, 4,5-bis(4-Fluorophenyl)-2-nitroimidazole], the ED50 in experiment [1] (setting [3]) was 0.6 mg/kg; in experiment [2] it was 59 mg/kg.
As for `CC(C)Cc1ccc(C(C)C(=O)O)cc1` (centres unmarked) [Ibuprofen, ibuprofen], the median effective dose (ED50) in experiment [1] (setting [3]) was 100 mg/kg.
On to `COc1ccc(-c2nc([N+](=O)[O-])[nH]c2-c2ccc(OC)cc2)cc1` [Example 2, 4,5-bis(4-Methoxyphenyl)-2-nitroimidazole], for which the median effective dose (ED50) is 2.5 mg/kg in experiment [1] (setting [3]) and below 130 mg/kg in experiment [2].
